Reference: patent US9157104B2, “Method to improve phosphate solubilization in plants” (Consiglio Nazionale delle Ricerche, priority 2009, dated 2015)

Experiments:
[1] = system: pho operon genes in S. meliloti cells; assay: Quantitative RT-PCR analysis of pho operon genes; type: cell-based; conditions: for phoB regulatory gene expression (qRT-PCR): P-sufficient (13 mM K-phosphate), vs untreated 1021 cells; for phoB regulatory gene expression (qRT-PCR) / expression level of all five pho genes (RT-PCR): compounds 0.5 mM, 3 hours; for expression level of all five pho genes (RT-PCR): P-starved conditions, vs control 1021
Procedure: FIG. S1. Quantitative RT-PCR analysis of pho operon genes in S. meliloti cells under P-sufficient conditions (13 mM K-phosphate). The relative expression level was >1 for genes more highly expressed in RD64 and in 1021 cells treated for 3 hours with 0.5 mM IAA, Ind, Trp, ICA and 2,4-D. The relative expression level was <1 for genes more highly expressed in 1021 cells (control). Error bars represent the standard deviation from three independent biological experiments.
FIG. 1. Quantitative RT-PCR analysis of pho operon genes expression in S. meliloti cells under P-starving conditions. The relative expression level was >1 for genes more highly expressed in RD64 and in 1021 cells treated for 3 hours with 0.5 mM IAA, Ind, Trp, ICA and 2,4-D. The relative expression level was <1 for genes more highly expressed in 1021 cells (control). Error bars represent the standard deviation from five independent biological experiments (p<0.05).
Total RNA from P-sufficient and P-starved cells was isolated as previously described (5). cDNA were synthesized with the StrataScript™ reverse transcription reagents (Stratagene) and random hexamers as primers. Quantitative PCR was performed with the Power SYBR PCR Master Mix (Applied Biosystems). Reactions were run on the iCycler iQ (Bio-Rad). The thermo cycling condition were: 15 min at 95° C., 40 cycles of denaturation at 95° C. for 20 s, annealing (20 s) and extension (35 s) at 72° C. Specific primer pairs, designed using the Primer3 software, are shown.
smc02641 and smc00128 were used as housekeeping genes for data normalization in the comparative Ct method as previously described (8). Phosphatase Activity

S. meliloti 1021 = assay: Microarray gene expression of 1021 cells treated with 0.5 mM compound; conditions: P-sufficient (13 mM); for pho genes among those significantly affected (microarray): 1021 + 0.5 mM compound vs untreated 1021;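 for all read-outs here: cells were harvested 3 h after the start of each treatment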
Procedure: For P starvation experiments, cells of 1021 wild-type and RD64 strains were grown at 30° C. to mid exponential phase (OD600=0.6) in RMM broth containing 1% (w/v) mannitol as carbon source and 13 mM P, washed with RMM containing 0 P, resuspended in the same medium and then divided into three cultures. No P (−P), 1.0 mM P (P-starved cells) or 13 mM P (+P cells also named P-sufficient cells) was added into the three cultures, respectively. The P-starved and P-sufficient 1021 wild type cells were treated for 3.0 hours with 0.5 mM IAA. […] To rule out that this bacteria could be partially starved for Trp, RD64 cells were also treated with 0.5 mM Trp and used for microarrays and RT-PCR analyses. […] After 3 hours of each treatment, cell batches were collected, freezed and stored at −80° C. for use in experiments.

[2] = Soluble phosphate release into bacterial free medium containing 5% PR; conditions: sterilized medium, level comparable to that released during Mt-RD64 plant growth (115.2 mg/l)
Source text: FIG. 4. Changes in soluble phosphate release into the bacterial free medium containing 5% phosphate rock (PR) as P source (P-limiting conditions for bacteria growing in a minimal media with PR). […] The amounts of each added organic acids derived from the data obtained in HPLC analysis and were reported in the Material and Methods section. Data are the mean±SD of five independent biological experiments (p<0.006). The concentration of soluble phosphate was estimated using a modification of Fiske and Subarrow method as described by […] et al. (37). […] Bacterial free medium was also treated with 0.5 mM IAA solution. A media that simulates growth is a media without bacteria or their supernatant. The media comprises only RP and the organic acids used as purified powder commercially available (SIGMA), the organic acids concentration used are that produced by the bacteria when grown in a defined media (with IAA, or without, or from RFD64).

acid phosphatase = assay: Acid phosphatase activity under P-starved conditions; type: cell-based, S. meliloti; conditions: phosphate starvation; vs 1021 cells; compounds 0.5 mM, 3 hours at 30° C.
alkaline phosphatase = conditions: phosphate starvation; vs 1021 cells; compounds 0.5 mM, 3 hours at 30° C.
Procedure: Acid (A) and alkaline (B) phosphatase activity in S. meliloti cells under P-starved conditions. Log-phase cells grown in a MOPS-buffered minimal medium (starting P concentration=13 mM) were washed and then resuspended in the same medium containing no added P (1021 and RD64 strains) and 0.5 mM IAA, Trp or Ind (1021 strain). Treatments were performed for 3 hours at 30° C.
Alkaline and acid phophatase enzymes under P-limiting conditions were assayed as previously reported (16). Units are reported as nanomoles per minute per milligram of protein. Protein concentrations were determined by the Bradford's assay.

[3] = 1021 + 0.5 mM ICA vs untreated 1021
[4] = 1021 + 0.5 mM Indole vs untreated 1021
[5] = 1021 + 0.5 mM Tryptophan vs untreated 1021

## O=C(O)COc1ccc(Cl)cc1Cl [2,4-D, 2,4-dichlorophenoxyacetic acid]
[1]
  phoB regulatory gene expression (qRT-PCR): unaffected
S. meliloti 1021
  pho genes among those significantly affected (microarray): did not find any pho genes
S. meliloti 1021; 1021 + 2,4-D vs untreated 1021
  M (log2 ratio of intensities) SMa1077 nex18: 2.581
  M (log2 ratio of intensities) SMa1128 degP4: 1.552
  M (log2 ratio of intensities) SMb21221 smb21221: 1.027
  M (log2 ratio of intensities) SMc00151 gph1: −0.8713
  M (log2 ratio of intensities) SMc00335 rpsA: −0.7145
  M (log2 ratio of intensities) SMc00363 rpm1: −0.8021
  M (log2 ratio of intensities) SMc00591 smc00591: 0.8629
  M (log2 ratio of intensities) SMc00869 atpF2: −1.318
  M (log2 ratio of intensities) SMc00912 groES1: −1.272
  M (log2 ratio of intensities) SMc01214 smc01214: −1.039
  M (log2 ratio of intensities) SMc01291 rpmD: −0.9964
  M (log2 ratio of intensities) SMc01298 rplX: −1.26
  M (log2 ratio of intensities) SMc01299 rplN: −1.587
  M (log2 ratio of intensities) SMc01300 rpsQ: −0.9524
  M (log2 ratio of intensities) SMc01301 rpmC: −2.007
  M (log2 ratio of intensities) SMc01319 rplJ: −1.788
  M (log2 ratio of intensities) SMc01326 tufB: −1.664
  M (log2 ratio of intensities) SMc01858 smc01858: −1.083
  M (log2 ratio of intensities) SMc01883 smc01883: −0.8788
  M (log2 ratio of intensities) SMc02340 smc02340: −1.408
  M (log2 ratio of intensities) SMc02498 atpH: −1.251
  M (log2 ratio of intensities) SMc02692 rplY: −0.8486
  M (log2 ratio of intensities) SMc02717 leuA1: −0.8087
  M (log2 ratio of intensities) SMc02905 dnaX: −0.7264
  M (log2 ratio of intensities) SMc03805 tesB: 0.9991
  M (log2 ratio of intensities) SMc03859 rpsP: −0.7104
  M (log2 ratio of intensities) SMc03979 gap: −1.065
  M (log2 ratio of intensities) SMc04003 rpmJ: −1.331

## O=C(O)CCC(O)C(=O)O (stereo not drawn) [2-hydroxyglutaric acid]
[2]
  P solubilization upon exogenous addition of 2-hydroxyglutaric acid: highest

## O=C(O)c1c[nH]c2ccccc12 [ICA, indole-3-carboxylic acid]
[1]
  phoB regulatory gene expression (qRT-PCR): unaffected
S. meliloti 1021; [3]
  M (log2 ratio of intensities) SMa1077 nex18: 0.9938
  M (log2 ratio of intensities) SMa1118 hspC2: 1.111
  M (log2 ratio of intensities) SMa1128 degP4: 1.148
  M (log2 ratio of intensities) SMa1306 virB9: 0.9404
  M (log2 ratio of intensities) SMb21183 htpG: 0.7619
  M (log2 ratio of intensities) SMc00323 rpsO: −0.722
  M (log2 ratio of intensities) SMc00335 rpsA: −0.7763
  M (log2 ratio of intensities) SMc00514 smc00514: 0.8721
  M (log2 ratio of intensities) SMc00537 smc00537: 0.9583
  M (log2 ratio of intensities) SMc00868 atpF: −0.8306
  M (log2 ratio of intensities) SMc00912 groES1: −1.491
  M (log2 ratio of intensities) SMc00913 groEL1: −0.8349
  M (log2 ratio of intensities) SMc01169 ald: 1.71
  M (log2 ratio of intensities) SMc01309 rplC: −0.7558
  M (log2 ratio of intensities) SMc01326 tufB: −0.8768
  M (log2 ratio of intensities) SMc01534 smc01534: 0.9277
  M (log2 ratio of intensities) SMc01793 smc01793: −0.7625
  M (log2 ratio of intensities) SMc02498 atpH: −0.7281
  M (log2 ratio of intensities) SMc02603 smc02603: 1.484
  M (log2 ratio of intensities) SMc03030 flgG: −0.7501
  M (log2 ratio of intensities) SMc03037 flaA: −0.7114
  M (log2 ratio of intensities) SMc03168 smc03168: 1.005
  M (log2 ratio of intensities) SMc03253 smc03253: 1.14
  M (log2 ratio of intensities) SMc03829 smc03829: 0.9065
  M (log2 ratio of intensities) SMc04040 ibpA: 1.474
  M (log2 ratio of intensities) SMc04114 pilA1: −0.7274
  M (log2 ratio of intensities) SMc04140 smc04140: 1.126
  M (log2 ratio of intensities) SMc04307 cyaD2: 1.012
S. meliloti 1021
  pho genes among those significantly affected (microarray): did not find any pho genes

## c1ccc2[nH]ccc2c1 [Indole, indole]
[1]
  expression level of all five pho genes (RT-PCR): only slightly induced or unchanged
Acid phosphatase
  acid phosphatase activity: unaffected, or only slightly increased
Alkaline phosphatase
  alkaline phosphatase activity: unaffected, or only slightly increased
S. meliloti 1021; [4]
  M (log2 ratio of intensities) SMa1077 nex18: 0.7413
  M (log2 ratio of intensities) SMa1087 sma1087: 0.7199
  M (log2 ratio of intensities) SMa1128 degP4: 1.152
  M (log2 ratio of intensities) SMa1329 sma1329: 1.658
  M (log2 ratio of intensities) SMb21177 phoC: 1.282
  M (log2 ratio of intensities) SMb21183 htpG: 0.9544
  M (log2 ratio of intensities) SMc00182 smc00182: −0.9429
  M (log2 ratio of intensities) SMc00335 rpsA: −0.7083
  M (log2 ratio of intensities) SMc00364 rplT: −1.373
  M (log2 ratio of intensities) SMc00383 gst3: −0.7478
  M (log2 ratio of intensities) SMc01106 smc01106: 1.513
  M (log2 ratio of intensities) SMc01291 rpmD: −1.485
  M (log2 ratio of intensities) SMc01308 rplD: −1.252
  M (log2 ratio of intensities) SMc01311 tufA: −0.711
  M (log2 ratio of intensities) SMc01312 fusA1: 0.9128
  M (log2 ratio of intensities) SMc01318 rplL: −0.7037
  M (log2 ratio of intensities) SMc01946 livK: −1.077
  M (log2 ratio of intensities) SMc02501 atpD: −1.405
  M (log2 ratio of intensities) SMc02857 dnaK: 0.7321
  M (log2 ratio of intensities) SMc03159 smc03159: −0.938
  M (log2 ratio of intensities) SMc03167 smc03167: 0.7656
  M (log2 ratio of intensities) SMc03253 smc03253: 1.951
  M (log2 ratio of intensities) SMc03829 smc03829: 0.8604
  M (log2 ratio of intensities) SMc04040 ibpA: 2.449
  M (log2 ratio of intensities) SMc04087 smc04087: 1.944
  M (log2 ratio of intensities) SMc04114 pilA1: −1.888
  M (log2 ratio of intensities) SMc04140 smc04140: 1.411
  M (log2 ratio of intensities) SMc04141 gst9: 1.708

## N[C@@H](Cc1c[nH]c2ccccc12)C(=O)O [Tryptophan, tryptophan]
[1]; 0.5 mM added to RD64 cells, vs untreated RD64 cells, data not shown
  expression of pho genes in RD64 cells after addition of compound: unaffected or slightly reduced
[1]
  expression level of all five pho genes (RT-PCR): only slightly induced or unchanged
  phoB regulatory gene expression (qRT-PCR): unaffected
Acid phosphatase
  acid phosphatase activity: unaffected, or only slightly increased
Alkaline phosphatase
  alkaline phosphatase activity: unaffected, or only slightly increased
S. meliloti 1021; [5]
  M (log2 ratio of intensities) SMa0707 sma0707: 0.9084
  M (log2 ratio of intensities) SMa0711 sma0711: 0.8863
  M (log2 ratio of intensities) SMa1007 sma1007: 0.9801
  M (log2 ratio of intensities) SMa1073 sma1073: 0.7423
  M (log2 ratio of intensities) SMa1087 sma1087: 0.751
  M (log2 ratio of intensities) SMa1118 hspC2: 0.8663
  M (log2 ratio of intensities) SMa1128 degP4: 1.449
  M (log2 ratio of intensities) SMa1321 virB1: 4.445
  M (log2 ratio of intensities) SMa2145 sma2145: 0.9145
  M (log2 ratio of intensities) SMa2189 sma2189: 0.993
  M (log2 ratio of intensities) SMb20585 ggt: 1.09
  M (log2 ratio of intensities) SMb20672 smb20672: 1.815
  M (log2 ratio of intensities) SMb20984 nirB 4: −1.11
  M (log2 ratio of intensities) SMb21566 groEL5: −1.021
  M (log2 ratio of intensities) SMc00155 aroF: −1.565
  M (log2 ratio of intensities) SMc00182 smc00182: −1.097
  M (log2 ratio of intensities) SMc01169 ald: 0.7379
  M (log2 ratio of intensities) SMc01293 rplR 3: −0.7637
  M (log2 ratio of intensities) SMc01311 tufA: −0.7229
  M (log2 ratio of intensities) SMc01313 rpsG: −0.7518
  M (log2 ratio of intensities) SMc01314 rpsL: −0.7349
  M (log2 ratio of intensities) SMc01636 smc01636: −0.9473
  M (log2 ratio of intensities) SMc02507 sitC: 1.133
  M (log2 ratio of intensities) SMc03253 smc03253: 2.689
  M (log2 ratio of intensities) SMc04140 smc04140: 2.032
  M (log2 ratio of intensities) SMc04141 gst9: 1.581
  M (log2 ratio of intensities) SMc04147 smc04147: 0.8262
  M (log2 ratio of intensities) SMc04434 rpmH: −0.7758
S. meliloti 1021
  pho genes among those significantly affected (microarray): did not find any pho genes
